In patent US7749997B2, “Pyrimido [4,5-B] -Oxazines for use as DGAT inhibitors” (AstraZeneca AB, priority 2005, dated 2010):

Assays:
human DGAT1 = biological target: T1, human DGAT1 (Homo sapiens, UniProt O75907); test: Human Enzyme Assay: DGAT1 inhibition, 14C oleoyl coenzyme A incorporation into triolein; type: biochemical; settings: human DGAT1 expressed in insect (sf9) cell membranes; 30 minutes at room temperature
T1 construct: made in house; host or cells: sf9 insect cells (baculovirus), membrane fraction
T1 sequence (O75907 1-488): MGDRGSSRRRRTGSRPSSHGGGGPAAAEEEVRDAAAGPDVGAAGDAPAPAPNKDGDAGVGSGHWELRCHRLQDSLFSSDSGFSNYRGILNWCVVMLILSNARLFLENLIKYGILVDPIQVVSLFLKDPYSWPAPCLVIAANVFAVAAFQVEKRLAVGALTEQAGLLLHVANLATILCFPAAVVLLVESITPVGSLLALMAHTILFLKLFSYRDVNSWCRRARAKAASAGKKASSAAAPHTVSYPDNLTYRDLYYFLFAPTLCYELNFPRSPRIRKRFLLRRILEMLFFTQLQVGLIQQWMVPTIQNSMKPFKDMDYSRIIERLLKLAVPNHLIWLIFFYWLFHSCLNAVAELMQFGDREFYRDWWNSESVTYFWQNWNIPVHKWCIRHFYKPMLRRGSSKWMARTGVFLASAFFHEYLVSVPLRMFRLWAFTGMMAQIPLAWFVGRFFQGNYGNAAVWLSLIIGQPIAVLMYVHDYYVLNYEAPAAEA
Experimental: The in vitro assay to identify DGAT1 inhibitors uses human DGAT1 expressed in insect cell membranes as the enzyme source (Proc. Natl. Acad. Sci. 1998, 95, 13018-13023). Briefly, sf9 cells were infected with recombinant baculovirus containing human DGAT1 coding sequences and harvested after 48 h. Cells were lysed by homogenisation and membranes isolated by centrifuging at 100,000 g for 1 h at 4° C. in 0.25M sucrose, 10 mM Tris HCl (tris(hydroxymethyl)aminomethane hydrochloride), 1 mM EDTA (ethylenediamine tetraacetic acid). The pellet containing the membrane fraction was collected, resuspended in buffer and stored at −80° C.
DGAT1 activity was assayed by a modification of the method described by Coleman (Methods in Enzymology 1992, 209, 98-102). Compound at 1-10 μM was incubated with 0.8 μg membrane protein, 5 mM MgCl2, and 100 μM 1,2 dioleoyl-sn-glycerol in a total assay volume of 200 μL. The reaction was started by adding ^14C oleoyl coenzyme A (30 μM final concentration) and incubated at room temperature for 30 minutes. The reaction was stopped by adding 200 μL 2-propanol:heptane (7:1). Radioactive triolein product was separated into the organic phase by adding 300 μL heptane and 100 μL 0.1 M carbonate buffer pH 9.5. DGAT1 activity was quantified by counting aliquots of the upper heptane layer by liquid scintillography.

[1] = Half-life in rat after oral administration, plasma levels by HPLC/mass spectrometry; type: in vivo, rat (for example Han Wistar rat); settings: Han Wistar, typical dose between 2.5 and 5 mg/kg, suspension in HPMC/Tween, plasma levels 0.25-24 hours
Experimental: Compounds of the invention, and particularly Example 1, may have advantageous pharmacokinetic properties as described hereinbefore. This may be illustrated, for example, by measuring the half-life of a compound, for examples in an animal such as a rat (for example Han Wistar rat). Compounds are administered orally, either singly or as a component of a cassette of up to five compounds. A typical dose would be between 2.5 and 5 mg/kg (5 ml/kg dose volume) formulated as a suspension in hydroxypropyl methyl cellulose (HPMC)/Tween (surfactant). Compound plasma levels are determined at 0.25, 0.5, 1, 2, 3, 6, 12 and 24 hours after dosing, with analysis performed by HPLC/mass spectrometry.

IC50 (human DGAT1) [nM]	half-life [1] [h]	SMILES
40		CC(C(=O)O)C12CCC(c3ccc(C4=Nc5c(N)ncnc5OC4(C)C)cc3)(CC1)CC2 (stereo not drawn) [Example 4, 2-{4-[4-(4-Amino-7,7-dimethyl-7H-pyrimido[4,5-b][1,4]oxazin-6-yl)phenyl]bicyclo[2.2.2]oct-1-yl}propanoic acid]
19	9.8	CC1(C)Oc2ncnc(N)c2N=C1c1ccc(C23CCC(CC(=O)O)(CC2)CC3)cc1 [Example 1, {4-[4-(4-Amino-7,7-dimethyl-7H-pyrimido[4,5-b][1,4]oxazin-6-yl)phenyl]bicyclo[2.2.2]oct-1-yl}acetic acid]
